Measured values from ChEMBL document CHEMBL1132749, “Synthesis and antiproliferative evaluation of 7-aminosubstituted pyrroloiminoquinone derivatives” (Bioorg Med Chem Lett, 2000).
pIC50: −log10 of the molar value.

How the values were obtained:
L1210 [1] = test: The compound was evaluated in vitro for its antiproliferative activity against the murine L1210 leukemia cell; assay type: functional, cell-based; conditions: Mus musculus
L1210 [2] = test: Effect of compound on cellular cycle of L1210 leukemia cell; non specific; assay type: functional, cell-based; conditions: Mus musculus

SMILES	pIC50 (L1210 [1])	Effect (L1210 [2])
CN(C)CCNC1=CC2=NCCc3c[nH]c(c32)C1=O	6.52	non specific
O=C1C(NCCN2CCCC2)=CC2=NCCc3c[nH]c1c32	6.42	non specific
O=C1C(NCCc2c[nH]c3ccccc23)=CC2=NCCc3c[nH]c1c32	5.28	non specific
NC1=CC2=NCCc3c[nH]c(c32)C1=O [MAKALUVAMINE I]	6.60	non specific
O=C1C(NCCc2ccc(O)cc2)=CC2=NCCc3c[nH]c1c32	5.68	non specific
